US11466016B2, “Pharmaceutical compounds” (priority 2018, dated 2022)
Structures can show the parent of a compound that is named as a salt.

biological target: SHP2 (Homo sapiens (Human), UniProt Q06124); assay: SHP2 Biochemical Assay (DiFMUP conversion, pIRS1 activating peptide); conditions: not given
Sequence (Q06124 whole entry): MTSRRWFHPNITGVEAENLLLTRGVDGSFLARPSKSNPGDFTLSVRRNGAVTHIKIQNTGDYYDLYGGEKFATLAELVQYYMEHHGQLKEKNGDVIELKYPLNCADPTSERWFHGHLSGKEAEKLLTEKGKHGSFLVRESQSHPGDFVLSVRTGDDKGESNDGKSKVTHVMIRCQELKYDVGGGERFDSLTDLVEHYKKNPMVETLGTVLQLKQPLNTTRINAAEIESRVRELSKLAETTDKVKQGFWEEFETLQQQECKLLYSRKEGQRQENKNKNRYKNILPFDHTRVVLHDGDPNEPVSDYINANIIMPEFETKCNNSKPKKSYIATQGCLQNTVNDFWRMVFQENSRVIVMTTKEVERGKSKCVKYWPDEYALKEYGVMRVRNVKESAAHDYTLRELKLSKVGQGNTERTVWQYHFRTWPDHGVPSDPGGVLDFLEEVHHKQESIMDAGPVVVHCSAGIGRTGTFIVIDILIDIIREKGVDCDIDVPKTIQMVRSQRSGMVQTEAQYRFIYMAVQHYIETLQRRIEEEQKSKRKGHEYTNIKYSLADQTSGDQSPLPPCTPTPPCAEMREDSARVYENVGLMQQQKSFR

SMILES	IC50	SHP2 (percent at stated concentration)
Cn1nc2ccc(-c3c[nH]c4nc(N5[C@H]6CC[C@@H]5[C@@H](F)[C@@H](N)C6)cnc34)c(Cl)c2c1Cl [Example 104, (1R,2S,3S,5S)-8-[7-(3,4-dichloro-2-methyl-2H-indazol-5-yl)-5H-pyrrolo[2,3-b]pyrazin-3-yl]-2-fluoro-8-azabicyclo[3.2.1]octan-3-amine, hydrochloride]	9.5 nM	
COc1cnc2ccc(-c3c[nH]c4nc(N5[C@H]6CC[C@@H]5[C@@H](F)[C@@H](N)C6)cnc34)c(Cl)c2n1 [Example 106, (1R,2S,3S,5S)-8-[7-(5-chloro-3-methoxyquinoxalin-6-yl)-5H-pyrrolo[2,3-b]pyrazin-3-yl]-2-fluoro-8-azabicyclo[3.2.1]octan-3-amine, hydrochloride]	22 nM	
Cn1nc2ccc(-c3n[nH]c4nc(N5[C@@H]6CC[C@H]5C[C@@H](O)C6)c(CO)nc34)c(Cl)c2c1Cl [Example 115, endo-8-[3-(3,4-dichloro-2-methyl-2H-indazol-5-yl)-5-(hydroxymethyl)-1H-pyrazolo[3,4-b]pyrazin-6-yl]-8-azabicyclo[3.2.1]octan-3-ol]		50%@0.30 uM
COc1cnc2ccc(-c3n[nH]c4nc(N5[C@@H]6CC[C@H]5[C@@H](F)[C@@H](N)C6)c(C)nc34)c(Cl)c2n1 [Example 121, (1S,2S,3S,5R)-8-[3-(5-chloro-3-methoxyquinoxalin-6-yl)-5-methyl-1H-pyrazolo[3,4-b]pyrazin-6-yl]-2-fluoro-8-azabicyclo[3.2.1]octan-3-amine]	14 nM	
Cc1nc2ccc(-c3n[nH]c4nc(N5[C@@H]6CC[C@H]5C[C@@H](N)C6)c(CO)nc34)c(Cl)c2s1 [Example 128, {6-[endo-3-amino-8-azabicyclo[3.2.1]octan-8-yl]-3-(7-chloro-2-methyl-1,3-benzothiazol-6-yl)-1H-pyrazolo[3,4-b]pyrazin-5-yl}methanol]	7.3 nM	
CN(C)c1cnc2ccc(-c3n[nH]c4nc(N5[C@@H]6CC[C@H]5[C@@H](F)[C@@H](N)C6)c(CO)nc34)c(Cl)c2n1 [Example 130, {6-[(1S,2S,3S,5R)-3-amino-2-fluoro-8-azabicyclo[3.2.1]octan-8-yl]-3-[5-chloro-3-(dimethylamino)quinoxalin-6-yl]-1H-pyrazolo[3,4-b]pyrazin-5-yl}methanol]	9.5 nM	

same assay, conditions: DiFMUP substrate, 0.25 μM pIRS1 peptide, 30 min pre-incubation; average where more than one data point; read-out: SHP2 (IC50)

SMILES	IC50
CC(C)n1cc2c(Cl)c(-c3n[nH]c4nc(N5[C@H]6CC[C@@H]5[C@@H](F)[C@@H](N)C6)c(CO)nc34)ccc2n1 [Example 101, {6-[(1R,2S,3S,5S)-3-amino-2-fluoro-8-azabicyclo[3.2.1]octan-8-yl]-3-[4-chloro-2-(propan-2-yl)-2H-indazol-5-yl]-1H-pyrazolo[3,4-b]pyrazin-5-yl}methanol]	21 nM
Cn1nc2ccc(-c3n[nH]c4nc(N5[C@@H]6CC[C@H]5[C@H](F)[C@@H](N)C6)c(CO)nc34)c(Cl)c2c1Cl [Example 102, {6-[(1S,2R,3S,5R)-3-amino-2-fluoro-8-azabicyclo[3.2.1]octan-8-yl]-3-(3,4-dichloro-2-methyl-2H-indazol-5-yl)-1H-pyrazolo[3,4-b]pyrazin-5-yl}methanol]	15 nM
CCn1nc2ccc(-c3n[nH]c4nc(N5[C@H]6CC[C@@H]5[C@@H](F)[C@@H](N)C6)c(CO)nc34)c(Cl)c2c1Cl [Example 103, {6-[(1R,2S,3S,5S)-3-amino-2-fluoro-8-azabicyclo[3.2.1]octan-8-yl]-3-(3,4-dichloro-2-ethyl-2H-indazol-5-yl)-1H-pyrazolo[3,4-b]pyrazin-5-yl}methanol]	8.9 nM
Cn1nc2ccc(-c3n[nH]c4nc(N5[C@H]6CC[C@@H]5[C@@H](F)[C@@H](N)C6)c(CO)nc34)c(F)c2c1Br [Example 105, {6-[(1R,2S,3S,5S)-3-amino-2-fluoro-8-azabicyclo[3.2.1]octan-8-yl]-3-(3-bromo-4-fluoro-2-methyl-2H-indazol-5-yl)-1H-pyrazolo[3,4-b]pyrazin-5-yl}methanol]	8.9 nM
COc1cnc2ccc(-c3c[nH]c4nc(N5[C@@H]6CC[C@H]5C[C@@H](N)C6)cnc34)c(Cl)c2n1 [Example 107, endo-8-[7-(5-chloro-3-methoxyquinoxalin-6-yl)-5H-pyrrolo[2,3-b]pyrazin-3-yl]-8-azabicyclo[3.2.1]octan-3-amine, hydrochloride]	22 nM
Cc1c(-c2n[nH]c3nc(N4[C@H]5CC[C@@H]4[C@@H](F)[C@@H](N)C5)c(CO)nc23)ccc2nn(C)c(Cl)c12 [Example 108, {6-[(1R,2S,3S,5S)-3-amino-2-fluoro-8-azabicyclo[3.2.1]octan-8-yl]-3-(3-chloro-2,4-dimethyl-2H-indazol-5-yl)-1H-pyrazolo[3,4-b]pyrazin-5-yl}methanol]	6.6 nM
COc1cnc2ccc(-c3n[nH]c4nc(N5[C@@H]6CC[C@H]5[C@@H](F)[C@@H](N)C6)c(CO)nc34)c(Cl)c2n1 [Example 109, {6-[(1S,2S,3S,5R)-3-amino-2-fluoro-8-azabicyclo[3.2.1]octan-8-yl]-3-(5-chloro-3-methoxyquinoxalin-6-yl)-1H-pyrazolo[3,4-b]pyrazin-5-yl}methanol]	11 nM
Cn1nc2ccc(-c3n[nH]c4nc(N5CCC(C)(N)CC5)c(CO)nc34)c(Cl)c2c1Cl [Example 110, [6-(4-amino-4-methylpiperidin-1-yl)-3-(3,4-dichloro-2-methyl-2H-indazol-5-yl)-1H-pyrazolo[3,4-b]pyrazin-5-yl]methanol]	7 nM
COc1cnc2ccc(-c3n[nH]c4nc(N5[C@@H]6CC[C@H]5CNC6)c(CO)nc34)c(Cl)c2n1 [Example 112, [3-(5-Chloro-3-methoxyquinoxalin-6-yl)-6-{3,8-diazabicyclo[3.2.1]octan-8-yl}-1H-pyrazolo[3,4-b]pyrazin-5-yl]methanol]	12 nM
COc1cnc2ccc(-c3n[nH]c4nc(N5[C@@H]6CC[C@H]5C[C@@H](N)C6)c(CO)nc34)c(Cl)c2n1 [Example 113, {6-[endo-3-amino-8-azabicyclo[3.2.1]octan-8-yl]-3-(5-chloro-3-methoxyquinoxalin-6-yl)-1H-pyrazolo[3,4-b]pyrazin-5-yl}methanol]	7.4 nM
N[C@H]1C[C@@H]2CC[C@H]([C@H]1F)N2c1nc2[nH]nc(-c3ccc4ncsc4c3Cl)c2nc1CO [Example 114, {6-[(1R,2S,3S,5S)-3-amino-2-fluoro-8-azabicyclo[3.2.1]octan-8-yl]-3-(7-chloro-1,3-benzothiazol-6-yl)-1H-pyrazolo[3,4-b]pyrazin-5-yl}methanol]	3 nM
Cn1nc2ccc(-c3n[nH]c4nc(N5[C@@H]6CC[C@H]5C[C@@](C)(N)C6)c(CO)nc34)c(Cl)c2c1Cl [Example 116, {6-[endo-3-amino-3-methyl-8-azabicyclo[3.2.1]octan-8-yl]-3-(3,4-dichloro-2-methyl-2H-indazol-5-yl)-1H-pyrazolo[3,4-b]pyrazin-5-yl}methanol]	7.5 nM
CN(C)c1cnc2ccc(-c3n[nH]c4nc(N5[C@H]6CC[C@@H]5[C@@H](F)[C@@H](N)C6)c(CO)nc34)c(Cl)c2n1 [Example 118, {6-[(1R,2S,3S,5S)-3-amino-2-fluoro-8-azabicyclo[3.2.1]octan-8-yl]-3-[5-chloro-3-(dimethylamino)quinoxalin-6-yl]-1H-pyrazolo[3,4-b]pyrazin-5-yl}methanol]	5.3 nM
COc1cnc2ccc(-c3n[nH]c4nc(N5[C@@H]6CC[C@H]5CNC6)c(C)nc34)c(Cl)c2n1 [Example 119, 8-Chloro-7-(6-{3,8-diazabicyclo[3.2.1]octan-8-yl}-5-methyl-1H-pyrazolo[3,4-b]pyrazin-3-yl)-2-methoxyquinoxaline]	14 nM
COc1cnc2ccc(-c3n[nH]c4nc(N5CCC(C)(N)CC5)c(C)nc34)c(Cl)c2n1 [Example 120, 1-[3-(5-chloro-3-methoxyquinoxalin-6-yl)-5-methyl-1H-pyrazolo[3,4-b]pyrazin-6-yl]-4-methylpiperidin-4-amine]	25 nM
Cn1nc2ccc(-c3c[nH]c4nc(N5[C@H]6CC[C@@H]5[C@@H](F)[C@@H](N)C6)c(CO)nc34)c(Cl)c2c1Cl [Example 122, {3-[(1R,2S,3S,5S)-3-amino-2-fluoro-8-azabicyclo[3.2.1]octan-8-yl]-7-(3,4-dichloro-2-methyl-2H-indazol-5-yl)-5H-pyrrolo[2,3-b]pyrazin-2-yl}methanol]	5.2 nM
Cc1nc2c(-c3ccc4nn(C)c(C#N)c4c3Cl)n[nH]c2nc1N1[C@H]2CC[C@@H]1[C@@H](F)[C@@H](N)C2 [Example 124, 5-{6-[(1R,2S,3S,5S)-3-amino-2-fluoro-8-azabicyclo[3.2.1]octan-8-yl]-5-methyl-1H-pyrazolo[3,4-b]pyrazin-3-yl}-4-chloro-2-methyl-2H-indazole-3-carbonitrile]	8.1 nM
Cn1nc2ccc(-c3n[nH]c4nc(N5[C@@H]6CCC[C@H]5CNC6)c(CO)nc34)c(Cl)c2c1Cl [Example 125]	7.1 nM
CCn1nc2ccc(-c3n[nH]c4nc(N5[C@H]6CC[C@@H]5[C@@H](F)[C@@H](N)C6)c(CO)nc34)c(Cl)c2c1C#N [Example 126, 5-{6-[(1R,2S,3S,5S)-3-amino-2-fluoro-8-azabicyclo[3.2.1]octan-8-yl]-5-(hydroxymethyl)-1H-pyrazolo[3,4-b]pyrazin-3-yl}-4-chloro-2-ethyl-2H-indazole-3-carbonitrile]	9.7 nM
CCn1nc2ccc(-c3n[nH]c4nc(N5[C@H]6CC[C@@H]5[C@@H](F)[C@@H](N)C6)c(C)nc34)c(Cl)c2c1C#N [Example 127, 5-{6-[(1R,2S,3S,5S)-3-amino-2-fluoro-8-azabicyclo[3.2.1]octan-8-yl]-5-methyl-1H-pyrazolo[3,4-b]pyrazin-3-yl}-4-chloro-2-ethyl-2H-indazole-3-carbonitrile, hydrochloride salt]	14 nM
Cn1nc2ccc(-c3n[nH]c4nc(N5[C@H]6CC[C@@H]5[C@@H](F)[C@@H](N)C6)c(CO)nc34)c(Cl)c2c1C#N [Example 129, 5-{6-[(1R,2S,3S,5S)-3-amino-2-fluoro-8-azabicyclo[3.2.1]octan-8-yl]-5-(hydroxymethyl)-1H-pyrazolo[3,4-b]pyrazin-3-yl}-4-chloro-2-methyl-2H-indazole-3-carbonitrile]	5 nM
